# Experimental data reported in patent US20220251039A1, “Diaryl-B-Lactam Compound and Preparation Method and Pharmaceutical Use Thereof” (Fudan University, priority 2016, published 2022).
# Entries after “also recorded” stand apart in the source; their conditions may differ.
# How the values were obtained:
# tubulin [1] = test: Immunoblotting analysis of polymerized/depolymerized tubulin; type: cell-based, human; conditions: Hela cells, 6 h
# Method: After being treated with diluent (0.2% DMSO), tested compound, CA-4 or PTX for 6 h, Hela cells were lysed with microtubulestabilizing buffer, containing 100 mM PIPES, pH 6.8, 1 mM MgCl2, 2 mM EGTA, 0.5% NP-40, 2 M glycerol, 5 μM PTX and protease inhibitors cocktail (Roche), and the lysate was centrifuged at 15,000 rpm for 15 min. Supernatant containing depolymerized tubulin was carefully collected, whereas pellet (polymerized tubulin) was further dissolved in SDS-lysis buffer (Beyotime, China). Equal amounts of supernatant and dissolved pellet were subjected to immunoblotting analysis as described above using a tubulin antibody (Proteintech).
# tubulin [2] = test: Immunofluorescent analysis of tubulin morphology; type: cell-based, human; conditions: SKOV-3 cells, 24 h
# Method: After treatment with diluent (0.2% DMSO) or tested compounds at indicated concentrations for 24 h, SKOV-3 cells were fixed with methanol, permeabilized with 0.1% Triton X-100 in PBS and blocked by goat serum. Then the cells were incubated with a-tubulin antibody at 4° C. overnight, followed by incubation with Alexa 488 labeled secondary antibody (Jackson ImmunoResearch) at RT for 1 h. After being stained with DAPI, cells were examined and photographed with a Leica SP5 co-focal fluorescence microscope.
# MDA-MB-231 cells = test: Colony formation assay; type: cell-based, human; conditions: 48 h treatment, 7-10 days growth
# Method: 1000 MDA-MB-231 cells per well were seeded into 6-well plate at a single cell density and were cultured at 37° C. for 48 h. After being treated with indicated concentrations of 69, 70 and 97, CA-4 as positive control, or diluent (0.2% DMSO) as negative control for 48 h, the agents containing medium was replaced by fresh medium to allow cell growth for additional 7-10 days. Then the cells were fixed with methanol and stained with gentian violet for 30 min. The number of colonies which consisted of more than 50 cells were counted. The results were indicated as mean values from three independent determinations.
# [3] = system: p-histone H3, cyclin B1 and BuBR1; test: Cell cycle associated proteins assay; type: cell-based, human; conditions: HeLa cells, 24 h, Western blot and qPCR
# Method: A. HeLa cells were treated with 69, 70, 97 or DMSO for 24 h. After being harvested, the cells were lysed, and the concentrations of total protein were determined by BCA protein assay kit (Beyotime, China). […] The membrane was blocked with 5% BSA in TBST for 1.5 h, then incubated overnight with specific primary antibodies (Proteintech) at 4° C. After being washed three times by TBST, the membrane was incubated with specific secondary antibodies (Abnova, Taipei, China) at room temperature for 2 h. Finally, chemiluminescent reagents (Millipore) were employed to detect the protein bands.
# (§1) B. Quantitative PCR assay: HeLa cells were treated with 69, 70 or 97. The expression level of mRNA of target proteins was tested with qPCR kit (Takara).
# cellular apoptosis = test: Cell apoptosis analysis (Annexin V/PI); type: cell-based; conditions: 48 h, Annexin-V/PI flow cytometry
# Method: Cell apoptosis was detected using FITC Annexin V Apoptosis Detection Kit (BD Biosciences) according to manufacturer's instructions. Briefly, cells were incubated with indicated concentrations of 69, 70 and 97, CA-4 as positive control or diluent (0.2% DMSO) as negative control for 48 h. Then the cells were harvested, washed twice with PBS, and re-suspended in binding buffer. After being stained with Annexin-V and PI for 15 min in the dark place, cells were subjected to flow cytometry (Cytomics FC 500 MPL, Beckman Coulter) analysis. The results were indicated as mean values from three independent determinations.
# [4] = system: Bax, p53 and cleaved-PARP; test: Expression level of apoptosis associated proteins; type: cell-based, human; conditions: HeLa cells, Western blot and qPCR
# Method: A. Western blotting: After being treated with candidate compound, cells were harvested and lysed. Then, the lysate was isolated by ultracentrifuge and quantified by BCA assay according to the protocol. After being denatured, equivalent protein of each sample was separated by SDS-PAGE gel and wet-transferred onto […] nitrocellulose membrane. After being blocked by PBS containing 5% skim milk, the membrane was incubated with primary antibody at 4° C. overnight and secondary antibody at room temperature for 2 h and then visualized by enhanced chemiluminescence kit (Thermo Fisher, USA), sequentially.
# as §1
# KM mice = test: Acute toxicity assay; type: in vivo
# Method: KM mice were housed individually in a specific pathogen free facility. Groups of mice (n=10 per group, half male and half female) were injected intraperitoneally once with various dosages of 69 (95, 70, 50, 35, 25 mg/kg), 70 (500, 425, 350, 275, 200 mg/kg), 97 (275, 200, 150, 125 and 100 mg/kg) or vehicle (8.3% cremohorp EL and 8.3% alcohol in PBS) as negative control, respectively. 69, 70 and 97 was dissolved in cremeohore EL and alcohol mixture (1:1, v/v) and further diluted with PBS (1:5, v/v). The death of mice were monitored daily and recorded up to 14 days after injection.
# A2780 cells = test: Xenografts tumor growth assay in nude mice; type: in vivo, Balb/c nude mice; conditions: A2780 xenograft; for tumor growth in vivo: i.p. once every 2 days, 69 7.5 mg/kg, 70 12.5 mg/kg, 97 4 or 8 mg/kg; for H&E staining of liver, kidney and spleen / H&E staining of tumor sections (necrosis): treated groups
# Method: 6 weeks old female Balb/c nude mice were purchased from Shanghai Slac Laboratory Animal Co. Ltd. (Shanghai, China). 2*10^6 A2780 cells suspended in 0.2 mL PBS per mouse was injected subcutaneously into the nude mice. […] Administration of agents or vehicle, or agents and measurement of tumor volumes with a digital caliper was done once every 2 days. Tumor volumes were calculated as volume=shortest diameter (W)^2*longest diameter (L)*0.52. When the average tumor volumes of vehicle treated group reached 2000 mm^3 in diameter, the mice were sacrificed and the tumors were isolated and weighed. Visceral organs of the mice as well as solid tumors were further analyzed by H&E staining.
smiles,measurement,setting,value
"C=C1C(=O)N(c2cc(OC)c(OC)c(OC)c2)[C@H]1c1ccc(OC)c(O)c1 [Compound 1, (S)-4-(3-hydroxy-4-methoxyphenyl)-3-methylene-1-(3,4,5-trimethoxyphenyl)azetidin-2-one]",polymerized tubulin (immunoblotting),tubulin [1],significantly inhibit tubulin aggregation
same,tubulin assembly (immunofluorescence),tubulin [2],significantly inhibit tubulin aggregation
"COc1ccc([C@H]2[C@H](CO)C(=O)N2c2cc(OC)c(OC)c(OC)c2)cc1O [Compound 69, (3R,4R)-4-(3-hydroxy-4-methoxyphenyl)-3-(hydroxymethyl)-1-(3,4,5-trimethoxyphenyl)azetidin-2-one]",polymerized tubulin (immunoblotting),tubulin [1],significantly inhibit tubulin aggregation; also recorded: dramatically reduction of polymerized tubulin
same,tubulin assembly (immunofluorescence),tubulin [2],significantly inhibit tubulin aggregation; also recorded: strongly inhibit tubulin assembly in cancer cells
same,colony formation,MDA-MB-231 cells,significantly inhibit the formation of colonies of cancer cells
same,"expression of p-histone H3, cyclin B1 and BuBR1",[3],"significantly promote the expression of phosphorylated histone H3, cyclin B1, and mitotic checkpoint protein BuBR1"
same,cellular apoptosis,cellular apoptosis,significantly promote apoptosis; also recorded: significantly induce cellular apoptosis
same,"expression of Bax, p53 and cleaved-PARP",[4],"significantly promote the expression of the proapoptotic protein Bax, the tumor suppressor gene p53, and the cleaved DNA repair enzyme; also recorded: significantly induce the expression of Bax, p53 and cleaved-PARP"
same,No. of dead mice 5-14 days,KM mice; 25 mg/kg i.p. once,0
same,No. of dead mice 1 day,KM mice; 25 mg/kg i.p. once,0
same,No. of dead mice 2 days,KM mice; 25 mg/kg i.p. once,0
same,No. of dead mice 3 days,KM mice; 25 mg/kg i.p. once,0
same,No. of dead mice 4 days,KM mice; 25 mg/kg i.p. once,0
same,No. of dead mice Total death,KM mice; 25 mg/kg i.p. once,0
same,Survival (%) on day 14,KM mice; 25 mg/kg i.p. once,100%
same,No. of dead mice 5-14 days,KM mice; 35 mg/kg i.p. once,0
same,No. of dead mice 1 day,KM mice; 35 mg/kg i.p. once,0
same,No. of dead mice 2 days,KM mice; 35 mg/kg i.p. once,0
same,No. of dead mice 3 days,KM mice; 35 mg/kg i.p. once,1
same,No. of dead mice 4 days,KM mice; 35 mg/kg i.p. once,0
same,No. of dead mice Total death,KM mice; 35 mg/kg i.p. once,1
same,Survival (%) on day 14,KM mice; 35 mg/kg i.p. once,90%
same,No. of dead mice 5-14 days,KM mice; 50 mg/kg i.p. once,0
same,No. of dead mice 1 day,KM mice; 50 mg/kg i.p. once,0
same,No. of dead mice 2 days,KM mice; 50 mg/kg i.p. once,0
same,No. of dead mice 3 days,KM mice; 50 mg/kg i.p. once,1
same,No. of dead mice 4 days,KM mice; 50 mg/kg i.p. once,0
same,No. of dead mice Total death,KM mice; 50 mg/kg i.p. once,1
same,Survival (%) on day 14,KM mice; 50 mg/kg i.p. once,90%
same,No. of dead mice 5-14 days,KM mice; 70 mg/kg i.p. once,1
same,No. of dead mice 1 day,KM mice; 70 mg/kg i.p. once,0
same,No. of dead mice 2 days,KM mice; 70 mg/kg i.p. once,0
same,No. of dead mice 3 days,KM mice; 70 mg/kg i.p. once,4
same,No. of dead mice 4 days,KM mice; 70 mg/kg i.p. once,2
same,No. of dead mice Total death,KM mice; 70 mg/kg i.p. once,7
same,Survival (%) on day 14,KM mice; 70 mg/kg i.p. once,30%
same,No. of dead mice 5-14 days,KM mice; 95 mg/kg i.p. once,1
same,No. of dead mice 1 day,KM mice; 95 mg/kg i.p. once,0
same,No. of dead mice 2 days,KM mice; 95 mg/kg i.p. once,0
same,No. of dead mice 3 days,KM mice; 95 mg/kg i.p. once,6
same,No. of dead mice 4 days,KM mice; 95 mg/kg i.p. once,1
same,No. of dead mice Total death,KM mice; 95 mg/kg i.p. once,8
same,Survival (%) on day 14,KM mice; 95 mg/kg i.p. once,20%
same,tumor growth in vivo,A2780 cells,significantly inhibit tumor growth in vivo; also recorded: anti-tumor activities in vivo
same,"H&E staining of liver, kidney and spleen",A2780 cells,"no abnormal areas are observed in tissue staining of liver, kidney and spleen; also recorded: no detectable abnormalities were observed in liver, kidney and spleen"
same,H&E staining of tumor sections (necrosis),A2780 cells,cause tumor tissue to produce necrotic areas; also recorded: extensive areas of necrosis or cell death
"COc1ccc([C@H]2[C@@H](C)C(=O)N2c2cc(OC)c(OC)c(OC)c2)cc1O [Compound 70, (3R,4R)-4-(3-hydroxy-4-methoxyphenyl)-3-methyl-1-(3,4,5-trimethoxyphenyl)azetidin-2-one]",polymerized tubulin (immunoblotting),tubulin [1],significantly inhibit tubulin aggregation; also recorded: dramatically reduction of polymerized tubulin
same,tubulin assembly (immunofluorescence),tubulin [2],significantly inhibit tubulin aggregation; also recorded: strongly inhibit tubulin assembly in cancer cells
same,colony formation,MDA-MB-231 cells,significantly inhibit the formation of colonies of cancer cells
same,"expression of p-histone H3, cyclin B1 and BuBR1",[3],"significantly promote the expression of phosphorylated histone H3, cyclin B1, and mitotic checkpoint protein BuBR1"
same,cellular apoptosis,cellular apoptosis,significantly promote apoptosis; also recorded: significantly induce cellular apoptosis
same,"expression of Bax, p53 and cleaved-PARP",[4],"significantly promote the expression of the proapoptotic protein Bax, the tumor suppressor gene p53, and the cleaved DNA repair enzyme; also recorded: significantly induce the expression of Bax, p53 and cleaved-PARP"
same,No. of dead mice 5-14 days,KM mice; 200 mg/kg i.p. once,0
same,No. of dead mice 1 day,KM mice; 200 mg/kg i.p. once,0
same,No. of dead mice 2 days,KM mice; 200 mg/kg i.p. once,0
same,No. of dead mice 3 days,KM mice; 200 mg/kg i.p. once,0
same,No. of dead mice 4 days,KM mice; 200 mg/kg i.p. once,0
same,No. of dead mice Total death,KM mice; 200 mg/kg i.p. once,0
same,Survival (%) on day 14,KM mice; 200 mg/kg i.p. once,100%
same,No. of dead mice 5-14 days,KM mice; 275 mg/kg i.p. once,1
same,No. of dead mice 1 day,KM mice; 275 mg/kg i.p. once,0
same,No. of dead mice 2 days,KM mice; 275 mg/kg i.p. once,0
same,No. of dead mice 3 days,KM mice; 275 mg/kg i.p. once,0
same,No. of dead mice 4 days,KM mice; 275 mg/kg i.p. once,1
same,No. of dead mice Total death,KM mice; 275 mg/kg i.p. once,2
same,Survival (%) on day 14,KM mice; 275 mg/kg i.p. once,80%
same,No. of dead mice 5-14 days,KM mice; 350 mg/kg i.p. once,0
same,No. of dead mice 1 day,KM mice; 350 mg/kg i.p. once,0
same,No. of dead mice 2 days,KM mice; 350 mg/kg i.p. once,0
same,No. of dead mice 3 days,KM mice; 350 mg/kg i.p. once,1
same,No. of dead mice 4 days,KM mice; 350 mg/kg i.p. once,0
same,No. of dead mice Total death,KM mice; 350 mg/kg i.p. once,1
same,Survival (%) on day 14,KM mice; 350 mg/kg i.p. once,90%
same,No. of dead mice 5-14 days,KM mice; 425 mg/kg i.p. once,0
same,No. of dead mice 1 day,KM mice; 425 mg/kg i.p. once,0
same,No. of dead mice 2 days,KM mice; 425 mg/kg i.p. once,0
same,No. of dead mice 3 days,KM mice; 425 mg/kg i.p. once,3
same,No. of dead mice 4 days,KM mice; 425 mg/kg i.p. once,0
same,No. of dead mice Total death,KM mice; 425 mg/kg i.p. once,3
same,Survival (%) on day 14,KM mice; 425 mg/kg i.p. once,70%
same,No. of dead mice 5-14 days,KM mice; 500 mg/kg i.p. once,0
same,No. of dead mice 1 day,KM mice; 500 mg/kg i.p. once,0
same,No. of dead mice 2 days,KM mice; 500 mg/kg i.p. once,0
same,No. of dead mice 3 days,KM mice; 500 mg/kg i.p. once,4
same,No. of dead mice 4 days,KM mice; 500 mg/kg i.p. once,0
same,No. of dead mice Total death,KM mice; 500 mg/kg i.p. once,4
same,Survival (%) on day 14,KM mice; 500 mg/kg i.p. once,60%
same,tumor growth in vivo,A2780 cells,significantly inhibit tumor growth in vivo; also recorded: anti-tumor activities in vivo
same,"H&E staining of liver, kidney and spleen",A2780 cells,"no abnormal areas are observed in tissue staining of liver, kidney and spleen; also recorded: no detectable abnormalities were observed in liver, kidney and spleen"
same,H&E staining of tumor sections (necrosis),A2780 cells,cause tumor tissue to produce necrotic areas; also recorded: extensive areas of necrosis or cell death
